The results in this text go back to patent publication US20210038577A1, “THIOREDOXIN REDUCTASE INHIBITORS FOR USE IN THE TREATMENT OF CANCER” (Cinda Pharma AB, priority 2018, published 2021).

The target of one data set is T1, recombinant rat TrxR (Rattus norvegicus, UniProt O89049).
T1 sequence (O89049 1-499): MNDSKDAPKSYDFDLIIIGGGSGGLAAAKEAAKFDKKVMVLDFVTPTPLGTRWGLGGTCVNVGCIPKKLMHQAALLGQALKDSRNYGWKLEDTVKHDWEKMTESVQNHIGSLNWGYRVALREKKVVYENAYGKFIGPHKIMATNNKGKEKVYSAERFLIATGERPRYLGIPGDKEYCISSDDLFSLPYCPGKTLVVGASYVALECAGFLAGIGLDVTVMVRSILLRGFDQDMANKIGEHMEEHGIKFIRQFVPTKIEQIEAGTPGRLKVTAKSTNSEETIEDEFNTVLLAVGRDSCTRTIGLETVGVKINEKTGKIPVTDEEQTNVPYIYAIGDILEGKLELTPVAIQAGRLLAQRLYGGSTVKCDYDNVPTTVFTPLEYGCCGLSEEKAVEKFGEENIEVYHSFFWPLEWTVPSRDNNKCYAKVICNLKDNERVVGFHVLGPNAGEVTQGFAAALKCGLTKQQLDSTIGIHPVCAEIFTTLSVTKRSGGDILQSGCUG
In words: Sec-dependent TrxR activity (DTNB assay). In kind it is biochemical. As to conditions: binding time of 4 hours (FIG. 1A). As for the experimental part: Sec-dependent TrxR activity was assessed using a 5′-5-dithiobis-(2-nitrobenzoic acid) (DTNB) assay. Multiple concentrations of compounds were incubated for various time points in reaction buffer, consisting of 50 mM Tris pH 7.5 with 2 mM EDTA and 0.1 mg/mL bovine serum albumin, and containing recombinant rat TrxR and 250 μM NADPH. 2.5 mM DTNB was added to each well and TNB^− production was followed at OD412. […] The amino acid sequence of rat TrxR1 is available in Gen Bank, with accession number AAF32362.1.

Another data set concerns MDA-MB-231 cells. In words: CellQuanti-Blue cell viability assay, MDA-MB-231. In kind it is cell-based, human. As for the experimental part: Cell viability was then assessed using the CellQuanti assay. Relative cell viability was determined using DMSO only and blank controls.
Cells were plated at 2000 cells/well into 96-well plates in media containing 10% FBS. […] CellQuanti-Blue cell viability reagent was added to each well and the plates were subsequently incubated at 37° C. for 3 hours. Viability was determined fluorometrically using an Enspire plate reader […] excitation: 530 nm, emission: 590 nm. Viability was normalized to DMSO controls and blank wells with media.

The subject of data set [1] is immune cells isolated from human blood donors (neutrophils, PBMC, monocytes, CD8+, CD4+, Tregs). In words: Viability of isolated immune cells (MTT assay). Format: cell-based. As to conditions: 24 h, up to 33 μM. The protocol:
Viability of neutrophils after treatment with OT-1096 for 24 h was assessed using donated blood from a healthy volunteer (HBsAg, HIV I&II negative), (Blood collection date: 1 Jun. 2017) where neutrophils were isolated using dextran sedimentation followed by hypotonic lysis and final isolation by Histopaque 1077 (Sigma-Aldrich). Viability was assessed using an MTT assay.
Viability of PBMC (peripheral blood mononuclear cells) after treatment with OT-1096 for 24 h was assessed using donated blood from two different donors. Donor-1, a healthy volunteer (HBsAg, HIV I&II negative), (Blood collection date: 1 Jun. 2017). […] Viability was assessed using an MTT assay.
Viability of monocytes after treatment with OT-1096 for 24 h was assessed using donated blood from a healthy volunteer (HBsAg, HIV I&II negative), (Blood collection date: 8 Jun. 2017) where monocytes was isolated by Histopaque 1077 (Sigma-Aldrich) followed by purification with MiniMACS system of ‘Miltenyi Biotec’ using CD14 microbeads (Cat No. 130-050-201). Viability was assessed using an MTT assay. […]
Viability of CD4+ cells after treatment with OT-1096 for 24 h was assessed using donated blood from a healthy volunteer (HBsAg, HIV I&II negative) where CD4+ cells were isolated by Histopaque 1077 (Sigma-Aldrich) followed by purification with MiniMACS system of ‘Miltenyi Biotec’ using CD4+ T Cell Isolation Reagent (Cat No. 130-096-533). […]
On the technique in general: Tetrazolium assays rely on reduction of a dye to a coloured formazan, in cell work by metabolically active cells.

Turning to `COc1ccc([N+](=O)[O-])c(S(=O)(=O)c2ccc(Cl)cc2)n1` [OT-1000, 2-((4-Chlorophenyl)sulfonyl)-6-methoxy-3-nitropyridine], the “potency relative to Iniparib, TrxR C-terminal activity” value on recombinant rat TrxR is given as 1000 fold. The “sensitivity of MDA-MB-231 cells over time of exposure” value with MDA-MB-231 cells (24, 48, 72 hours (FIG. 2A)) is listed as “increasingly sensitive”. Also, the “potency relative to Iniparib in MDA-MB-231 cells” value in the data set with MDA-MB-231 cells (CellQuanti-Blue, 24, 48 or 72 hours) is 100 fold.
Regarding `CCCCCCCCS(=O)(=O)c1nc(OC)ccc1[N+](=O)[O-]` [OT-1096, 6-methoxy-3-nitro-2-(octylsulfonyl)pyridine], the “cytotoxicity in isolated immune cell populations” value in data set [1] was “No (or low) cytotoxicity”.
